Test results taken from patent publication US6465527B1, “Iodinated hydrocarbon pesticide” (priority 1999, dated 2002).
Entries after “also recorded” stand apart in the source; their conditions may differ.

Assays:
Type in all cases: in vivo
[1] = system: German cockroach, Blattella germanica (L.); test: Fumigant toxicity in sealed glass jar, German cockroach; settings: 30-60 adult males
[2] = system: American cockroach, Periplaneta americana (L.); test: Fumigant toxicity in sealed glass jar, American cockroach; settings: 8-36 adult males
[3] = system: Cowpea weevil, Callosobruchus maculatus (F.); test: Fumigant toxicity, Cowpea weevil; parameters: concentration or dose not given beside the values; settings: 30 adults
Protocol: Shown in Table 2 is the toxicity of both monoiodinated and diiodinated hydrocarbons to the German and American cockroach and the Cowpea weevil after 24 hours of exposure.

Heterodera glycines = test: Greenhouse nematicide test, diiodinated C2-C8 hydrocarbons in infested field soil (Experiments 1 and 2)
Meloidogyne arenaria = test: as above
[4] = system: 'Brim' soybean [Glycine max]; test: Soybean growth in treated soil (Experiments 1 and 2)
Protocol: Additionally, the nematicidal properties of iodinated hydrocarbons were investigated in greenhouse experiments with field soil infested with Meloidogyne arenaria and Heterodera Glycines. Chemicals were added directly to infested solid at rates <100 mg/Kg soil. Treated soil was kept moist (approximately 60 percent field capacity) and uncovered for 7-10 days when samples were collected, and the pots were planted with ‘Brim’ soybean, Glycine max. […] 1,2-diiodoethane (C2), 1,3-diiodopropane (C3), 1,4-diiodobutane (C4), 1,5-diiodopentane (C5), 1,6-diiodohexane (C6), and […] were applied to soil rates of 2.5, 5.0, 7.5, and 10 mg/Kg soil. All rates of C2 and C8 were ineffective in reducing M. arenaria juvenile (J2) populations in preplant samples. This was also true for C2 and J2 populations of H. glycines; however, […] rates ≧5.0 mg suppressed J2 populations of H. glycines. […] H. glycines J2 numbers in final soil samples were generally inversely related to rates for C3-C8. […] Applications of C3-C6 to soil increased shoot weights in a manner directly related to dosages but only in a curvilinear pattern.
In this experiment, the nematicidal properties of various diiodinated hydrocarbons were compared. The nematicidal properties of diiodinated C2-C8 normal hydrocarbons was assessed in a greenhouse experiment with field soil infested with Meloidogyne arenaria [Ma] and Heterodera glycines [Hg]. 1,2-diiodoethane [C2], 1,3-diiodopropane [C3], 1,4-diiodobutane [C4], 1.5-diiodopentane [C5], 1,6-diiodohexane [C6] and 1,8-diiodooctane [C8] were applied to soil at rates of 2.5, 5.0, 7.5, and 10.0 mgs/kg soil. The potted soil was kept moist in a greenhouse for 10 days when preplant samples were collected for analysis, and the pots were planted with ‘Brim’ soybean [Glycine max]. After 7 weeks of growth, the plants were removed and final soil samples taken. Data was collected on weights of fresh roots and shoots, root galling by Ma, and numbers of nematodes in soil and roots. All rates of C2 and C8 were ineffective in reducing Ma juvenile [J2] populations in the preplant samples. This was also true for C2 and J2 populations of Hg; however, C8 rates ≧5.0 mg suppressed J2 populations of Hg. […] Hg J2 numbers in final soil samples were generally inversely related to rates for C3-C8. This pattern of suppression in J2 numbers was also applicable to Ma in the final soil samples but only for C3-C6. […] Applications of C3-C6 to soil increased shoot weights in a manner directly related to dosages but non-linear in pattern.

[5] = system: reniform nematode [Rotylenchulus reniformis]; test: Greenhouse nematicide test in cotton field soil, covered and uncovered pots (Experiment 6, FIGS. 1-4)
Source text: FIGS. 2 and 3 illustrate the effectiveness of the diiodoethane and diiodopropane in eliminating the nematode (Rotylenchulus reniformis) from a soil sample. The “x” axis on the top row illustrates the quantity of iodinated hydrocarbon in milligrams per kilogram of soil. The next two rows below the “x” axis indicate the number of nematodes per 100 milliliters of soil, which is also indicated on the “y” axis. In FIG. 2, 1,2-diiodoethane was applied to the soil both in a covered state and an uncovered state. […] This is believed to be so because of the volatility of 1,2 diiodoethane, wherein the cover slows down the rate at which the compound evaporates into the atmosphere.
In this experiment, the pesticidal and herbicidal properties of volatile, low molecular weight, iodinated hydrocarbons were investigated. The relative nematicidal efficacy of iodomethane [C1], 1,2-diiodoethane [C2], 1,3-diiodopropane [C3] and 1,4-diiodobutane [C4] was studied in greenhouse experiments with soil from a cotton field infested with the reniform nematode [Rotylenchulus reniformis]. The chemicals were obtained from Aldrich, Milwaukee, U.S.A. Emulsifiable concentrates of the compounds were prepared by dilution in acetone containing an emulsogen.
For each chemical, an aqueous emulsion with 0.2% [w/w] of the compound was prepared and was applied to soil at rates of 2, 4, 6, 8, 10, and 12 mgs a.i./Kg soil. The treated soil was mixed and transferred to 1L capacity 10-cm diameter cylindrical pots. Pots with untreated soil [control] and with treated soil were placed on a greenhouse bench in a randomized complete block design. Each treatment was represented by 14 replications [pots], one half of which were left uncovered, and the other 7 were covered with polyethylene plastic bags [approx. 1 mil thickness] retained with a rubber around the pots. Soil samples for nematological analysis [salad bowl incubation technique] were collected 7-10 days after application of the materials. […] In covered pots, applications of the material were particularly effective resulting in 100% kill with the 10 and 12 mg rates. All dosages of C3 and C4 eliminated the nematode in covered pots. […] In a greenhouse experiment of similar design to the nematicide experiments, the C3 and C4 emulsions were applied at rates of 2-20 mgs a.i./Kg soil to a soil infested with crabgrass [Digitaria sanguinalis], purple nutsedge [Cyperus rotundus], Jimson weed [Datura stramonium] and a variety of other weed species. All pots were covered, and the number of weeds were counted 7, 14 and 30 days after application of the chemicals.

[6] = all rates (2.5, 5.0, 7.5, 10 mg/Kg soil)

Question: `ICCI` [1,2-diiodoethane] was tested. Which “% Mortality after 1 h exposure, German cockroach” value ([1]; 1 h exposure) did it give?
Answer: Its value is 40%.

Question: What about the “% Mortality after 24 h exposure, German cockroach” value ([1]; 24 h exposure) of the same compound?
Answer: Its value is 10%.

Question: And the “% Mortality after 1 h exposure, American cockroach” value ([2]; 1 h exposure)?
Answer: Its value is 8%.

Question: What about the “% Mortality after 24 h exposure, American cockroach” value ([2]; 24 h exposure) of the same compound?
Answer: The value was 100%.

Question: What about the “% Mortality after 24 h exposure, Cowpea weevil” value [3] of the same compound?
Answer: The value was 100%.

Question: And the “H. glycines J2 populations in preplant samples” value (Heterodera glycines; [6])?
Answer: The value was “ineffective”.

Question: And the “H. glycines J2 numbers in final soil samples” value (Heterodera glycines; final soil samples after soybean growth, rates 2.5-10 mg/kg soil, listed as C2)?
Answer: Its value is “either no change in H. glycines J2 numbers or in increased numbers; also recorded: either no change in Hg J2 numbers or in increased numbers”.

Question: What about the “H. glycines J2 populations in preplant samples” value (Heterodera glycines; rates ≧5.0 mg) of the same compound?
Answer: Its value is “suppressed”.

Question: And the “M. arenaria juvenile (J2) populations in preplant samples” value (Meloidogyne arenaria; [6])?
Answer: Its value is “ineffective”.

Question: What about the “M. arenaria J2 numbers in final soil samples” value (Meloidogyne arenaria; final soil samples after soybean growth, rates 2.5-10 mg/kg soil) of the same compound?
Answer: Its value is “increased directly with C2 dosage”.

Question: And the “Shoot weights of soybean” value ([4]; 2.5 mg rate)?
Answer: Its value is “increased shoot weights slightly”.

Question: And the “Shoot weights of soybean” value ([4]; rates higher than 2.5 mg)?
Answer: The value was “no significant effect”.

Question: And the “Numbers of the nematode in soil in response to rates” value ([5]; 2-12 mgs a.i./Kg soil)?
Answer: The value was “declined linearly”.

Question: What about the “Kill of the nematode” value ([5]; covered pots, 10 and 12 mg rates) of the same compound?
Answer: The value was 100%.

Question: What about the “Effectiveness covered versus uncovered at eliminating the nematodes (FIG. 2)” value ([5]; covered state and uncovered state) of the same compound?
Answer: Its value is “covered samples were more effective”.
